ChEMBL document CHEMBL5665443, “Enzyme Inhibitor Single Concentration assay results for EUbOPEN Chemogenomics Library” (2024)

Tests used:
[1] = molecular target: Endonuclease 8-like 1 (Homo sapiens) (UniProt Q96FI4); conditions: Compound Concentration 10.0 uM, Hit No;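 further: fluorescence at 594 nm from quenched duplex DNA oligonucleotides released by NEIL1 cleavage and strand separation, reported as reduction of this enzyme activity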
Description: Inhibition of NEIL1 by quantifying inhibition of NEIL1-mediated cleavage and dissociation of quenched duplex DNA oligonucleotides, measured as fluorescence at 594 nm.

[2] = molecular target: G/T mismatch-specific thymine DNA glycosylase (Homo sapiens) (UniProt Q13569); conditions: Compound Concentration 10.0 uM, Hit No;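 further: human TDG cleavage of quenched duplex DNA oligonucleotides coupled to APE1, strand release read as fluorescence at 594 nm, inhibition of TDG activity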
G/T mismatch-specific thymine DNA glycosylase (Homo sapiens), sequence (Q13569 whole entry): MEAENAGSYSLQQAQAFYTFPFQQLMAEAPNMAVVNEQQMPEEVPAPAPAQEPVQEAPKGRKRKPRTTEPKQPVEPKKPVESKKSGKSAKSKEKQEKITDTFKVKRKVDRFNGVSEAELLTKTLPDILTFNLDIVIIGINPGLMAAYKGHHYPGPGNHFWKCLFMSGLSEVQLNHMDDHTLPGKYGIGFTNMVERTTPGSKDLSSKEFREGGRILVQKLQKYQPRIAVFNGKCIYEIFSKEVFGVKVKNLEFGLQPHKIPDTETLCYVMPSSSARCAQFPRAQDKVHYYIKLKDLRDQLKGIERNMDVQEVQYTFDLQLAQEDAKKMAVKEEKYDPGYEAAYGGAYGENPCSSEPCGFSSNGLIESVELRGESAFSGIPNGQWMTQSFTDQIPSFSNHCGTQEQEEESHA
Description: Inhibition of TDG by quantifying inhibition of TDG-mediated cleavage and dissociation of quenched duplex DNA oligonucleotides, measured as fluorescence at 594 nm. To generate a functional strand incision and increase turn-over this assay is coupled to APE1.

[3] = molecular target: Uracil-DNA glycosylase (Homo sapiens) (UniProt P13051); conditions: Compound Concentration 10.0 uM, Hit No;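 further: UNG excision on a quenched double-stranded DNA oligo probe, with APE1 added for strand incision and turnover, read as fluorescence at 594 nm as strands separate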
Uracil-DNA glycosylase (Homo sapiens), sequence (P13051 whole entry): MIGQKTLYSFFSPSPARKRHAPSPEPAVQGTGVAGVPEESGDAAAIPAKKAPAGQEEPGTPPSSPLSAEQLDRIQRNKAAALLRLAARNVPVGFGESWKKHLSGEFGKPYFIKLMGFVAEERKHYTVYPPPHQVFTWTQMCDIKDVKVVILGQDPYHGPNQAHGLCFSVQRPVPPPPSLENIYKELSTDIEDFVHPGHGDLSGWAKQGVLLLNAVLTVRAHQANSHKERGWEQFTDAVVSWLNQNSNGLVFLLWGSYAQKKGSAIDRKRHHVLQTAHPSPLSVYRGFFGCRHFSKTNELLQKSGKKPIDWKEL
Description: Inhibition of UNG by quantifying inhibition of UNG-mediated cleavage and dissociation of quenched duplex DNA oligonucleotides, measured as fluorescence at 594 nm. To generate a functional strand incision and increase turn-over this assay is coupled to APE1.

[4] = molecular target: T1, Endonuclease 8-like 2 (Homo sapiens) (UniProt Q969S2); conditions: Compound Concentration 10.0 uM, Hit No;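 further: fluorescence at 594 nm reports NEIL2 cutting and release of a quenched double-stranded DNA oligo substrate, reduced signal read as inhibition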
T1 sequence (whole entry): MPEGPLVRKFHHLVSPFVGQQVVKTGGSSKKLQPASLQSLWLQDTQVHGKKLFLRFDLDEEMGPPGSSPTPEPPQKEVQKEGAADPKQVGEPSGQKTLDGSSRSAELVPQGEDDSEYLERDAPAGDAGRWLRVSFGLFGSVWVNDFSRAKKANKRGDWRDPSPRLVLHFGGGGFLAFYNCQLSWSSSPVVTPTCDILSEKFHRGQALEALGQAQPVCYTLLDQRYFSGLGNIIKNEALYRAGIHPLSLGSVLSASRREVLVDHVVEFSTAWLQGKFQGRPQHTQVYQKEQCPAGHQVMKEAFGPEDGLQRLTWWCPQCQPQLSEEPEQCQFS
Description: Inhibition of NEIL2 by quantifying inhibition of NEIL2-mediated cleavage and dissociation of quenched duplex DNA oligonucleotides, measured as fluorescence at 594 nm.

[5] = molecular target: DNA-3-methyladenine glycosylase (Homo sapiens) (UniProt P29372); conditions: Compound Concentration 10.0 uM, Hit No;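 further: enzyme assay where MPG cuts a quenched duplex DNA oligonucleotide probe, paired with APE1 for strand incision and turnover, read as fluorescence at 594 nm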
DNA-3-methyladenine glycosylase (Homo sapiens), sequence (P29372 whole entry): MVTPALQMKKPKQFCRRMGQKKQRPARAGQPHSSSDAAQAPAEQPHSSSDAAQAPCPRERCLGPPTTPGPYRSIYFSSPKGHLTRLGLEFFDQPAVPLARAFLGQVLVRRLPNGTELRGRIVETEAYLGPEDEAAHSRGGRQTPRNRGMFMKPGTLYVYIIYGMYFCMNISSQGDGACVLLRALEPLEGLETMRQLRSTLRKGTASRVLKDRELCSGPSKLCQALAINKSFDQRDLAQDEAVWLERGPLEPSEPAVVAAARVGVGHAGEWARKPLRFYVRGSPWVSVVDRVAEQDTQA
Description: Inhibition of MPG by quantifying inhibition of MPG-mediated cleavage and dissociation of quenched duplex DNA oligonucleotides, measured as fluorescence at 594 nm. To generate a functional strand incision and increase turn-over this assay is coupled to APE1.

[6] = molecular target: T2, Endonuclease III-like protein 1 (Homo sapiens) (UniProt P78549); conditions: Compound Concentration 10.0 uM, Hit No;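 further: enzyme assay tracking NTHL1 cutting and release of a quenched double-stranded DNA oligo substrate, read as fluorescence at 594 nm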
T2 sequence (whole entry): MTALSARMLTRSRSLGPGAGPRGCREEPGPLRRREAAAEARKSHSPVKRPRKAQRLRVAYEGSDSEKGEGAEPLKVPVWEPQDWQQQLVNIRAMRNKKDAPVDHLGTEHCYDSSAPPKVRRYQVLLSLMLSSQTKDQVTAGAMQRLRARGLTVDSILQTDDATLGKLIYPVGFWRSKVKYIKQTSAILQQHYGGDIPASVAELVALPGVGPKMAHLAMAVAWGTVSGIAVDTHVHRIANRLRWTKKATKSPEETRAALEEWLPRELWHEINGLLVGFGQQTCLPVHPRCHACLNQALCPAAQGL
Description: Inhibition of NTHL1 by quantifying inhibition of NTHL1-mediated cleavage and dissociation of quenched duplex DNA oligonucleotides, measured as fluorescence at 594 nm.

[7] = molecular target: Methyl-CpG-binding domain protein 4 (Homo sapiens) (UniProt O95243); conditions: Compound Concentration 10.0 uM;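 further: MBD4 activity read as fluorescence at 594 nm from cleavage and release of a quenched duplex DNA oligonucleotide, with APE1 coupled to incise the strand and raise turnover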
Methyl-CpG-binding domain protein 4 (Homo sapiens), sequence (O95243 whole entry, the tested form may be a part): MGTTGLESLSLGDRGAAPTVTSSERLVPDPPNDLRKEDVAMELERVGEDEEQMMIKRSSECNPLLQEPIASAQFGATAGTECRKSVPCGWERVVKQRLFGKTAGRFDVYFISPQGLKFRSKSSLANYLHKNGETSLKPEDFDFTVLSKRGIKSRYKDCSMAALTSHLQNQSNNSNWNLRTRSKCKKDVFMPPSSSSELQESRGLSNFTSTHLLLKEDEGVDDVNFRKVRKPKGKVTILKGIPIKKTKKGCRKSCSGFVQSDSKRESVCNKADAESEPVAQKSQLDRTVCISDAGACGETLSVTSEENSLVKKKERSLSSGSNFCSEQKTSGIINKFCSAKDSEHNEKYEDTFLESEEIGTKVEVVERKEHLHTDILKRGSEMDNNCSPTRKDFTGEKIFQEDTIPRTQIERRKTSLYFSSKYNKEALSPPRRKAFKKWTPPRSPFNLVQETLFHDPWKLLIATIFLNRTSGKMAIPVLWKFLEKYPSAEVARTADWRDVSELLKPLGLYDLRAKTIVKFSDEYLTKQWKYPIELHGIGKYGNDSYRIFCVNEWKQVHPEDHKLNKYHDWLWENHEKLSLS
Description: Inhibition of MBD4 by quantifying inhibition of MBD4-mediated cleavage and dissociation of quenched duplex DNA oligonucleotides, measured as fluorescence at 594 nm. To generate a functional strand incision and increase turn-over this assay is coupled to APE1.

[8] = molecular target: T3, Single-strand selective monofunctional uracil DNA glycosylase (Homo sapiens) (UniProt Q53HV7); conditions: Compound Concentration 10.0 uM, Hit No;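 further: enzymatic SMUG1 assay coupled with APE1, reading fluorescence at 594 nm released when a quenched double-stranded DNA oligonucleotide substrate is cleaved and separated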
T3 sequence (whole entry): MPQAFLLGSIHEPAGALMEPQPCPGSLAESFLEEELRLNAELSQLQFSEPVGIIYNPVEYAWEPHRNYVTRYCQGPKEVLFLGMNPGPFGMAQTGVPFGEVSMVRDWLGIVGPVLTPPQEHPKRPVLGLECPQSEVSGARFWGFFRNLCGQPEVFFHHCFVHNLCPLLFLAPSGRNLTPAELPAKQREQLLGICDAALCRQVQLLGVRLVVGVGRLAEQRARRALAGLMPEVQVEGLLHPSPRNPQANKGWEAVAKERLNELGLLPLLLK
Description: Inhibition of SMUG1 by quantifying inhibition of SMUG1-mediated cleavage and dissociation of quenched duplex DNA oligonucleotides, measured as fluorescence at 594 nm. To generate a functional strand incision and increase turn-over this assay is coupled to APE1.

[9] = molecular target: N-glycosylase/DNA lyase (Homo sapiens) (UniProt O15527); conditions: Compound Concentration 10.0 uM, Hit No;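 further: OGG1 cleavage of a quenched duplex DNA oligonucleotide, coupled to APE1 for strand incision, read as fluorescence at 594 nm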
N-glycosylase/DNA lyase (Homo sapiens), sequence (O15527 whole entry): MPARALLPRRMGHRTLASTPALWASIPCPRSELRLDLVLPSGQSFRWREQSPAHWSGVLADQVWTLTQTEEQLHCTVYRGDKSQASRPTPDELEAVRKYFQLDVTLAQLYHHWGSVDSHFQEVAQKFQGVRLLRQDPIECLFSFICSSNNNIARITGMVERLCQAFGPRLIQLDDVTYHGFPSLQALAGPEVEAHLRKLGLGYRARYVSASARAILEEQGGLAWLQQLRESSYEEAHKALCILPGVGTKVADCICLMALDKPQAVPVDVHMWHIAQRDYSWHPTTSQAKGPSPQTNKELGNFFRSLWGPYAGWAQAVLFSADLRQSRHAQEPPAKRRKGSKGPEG
Description: Inhibition of OGG1 by quantifying inhibition of OGG1-mediated cleavage and dissociation of quenched duplex DNA oligonucleotides, measured as fluorescence at 594 nm. To generate a functional strand incision and increase turn-over this assay is coupled to APE1.

Endonuclease 8-like 1 (Homo sapiens), sequence (Q96FI4 whole entry): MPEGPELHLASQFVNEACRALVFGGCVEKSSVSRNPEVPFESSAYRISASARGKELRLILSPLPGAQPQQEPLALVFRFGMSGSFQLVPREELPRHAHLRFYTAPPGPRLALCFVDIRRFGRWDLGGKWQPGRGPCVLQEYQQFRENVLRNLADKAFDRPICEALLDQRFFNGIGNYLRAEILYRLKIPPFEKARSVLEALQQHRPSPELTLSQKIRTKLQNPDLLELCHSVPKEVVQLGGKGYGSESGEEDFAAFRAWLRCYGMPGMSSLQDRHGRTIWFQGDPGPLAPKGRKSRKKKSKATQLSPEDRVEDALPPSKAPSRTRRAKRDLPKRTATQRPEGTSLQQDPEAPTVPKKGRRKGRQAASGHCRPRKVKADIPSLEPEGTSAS

SMILES	inhibition [1] [%]	inhibition [2] [%]	inhibition [3] [%]	inhibition [4] [%]	inhibition [5] [%]	inhibition [6] [%]	inhibition ([7]; Hit No) [%]	inhibition [8] [%]	inhibition [9] [%]	inhibition ([7]; Hit Yes) [%]
COc1ccccc1-n1nc(C2CC(C)(C)OC(C)(C)C2)cc1-c1ccc(Cl)cc1	11.3	-6.29	-3.03	-4.68	-7.01	12.1	-1.99	–	–	–
CN1[C@@H](CC(=O)c2ccccc2)CCC[C@H]1C[C@H](O)c1ccccc1	1.64	-5.94	-4.79	–	-4.83	-8.51	–	1.46	-6.7	–
COC1CCN(c2cccc(-c3cc(NC(C)=O)nc(-n4nc(C)cc4C)n3)n2)CC1	–	-3.39	–	2.26	6.5	12.2	-4.26	–	-4.31	–
N#Cc1c(Oc2cccc(OS(=O)(=O)CCCC(F)(F)F)c2)cccc1C(F)(F)F	–	-4.05	-1.27	-7.74	8.15	-1.91	–	–	-7.69	–
C[C@H](CCC(=O)O)[C@H]1CC[C@H]2[C@@H]3CC[C@@H]4C[C@H](O)CC[C@]4(C)[C@H]3CC[C@]12C	10	21.8	-8.43	8	15.2	–	–	-9.19	4.17	140
CC[C@@H](C[C@H]1COC(N)=N1)c1ccccc1	8.31	11.1	-3.91	-1.88	-5.21	17.9	4.05	–	–	–
CS(=O)(=O)c1ccc(C(=O)Nc2ccc(Cl)c(-c3ccccn3)c2)c(Cl)c1	3.5	6.01	–	5.76	3.65	-9.8	–	–	–	–
CC[C@@H](C)Nc1nc(C)nc2c(-c3ccc(OC)nc3C)c(C)nn12	4.1	17.1	-5.14	2.26	9.17	–	8.63	10.2	-1.59	–
COC(=O)C1=C(C)NC(C)=C(C(=O)OCCCN2CCC(c3ccccc3)(c3ccccc3)CC2)[C@H]1c1cccc([N+](=O)[O-])c1	–	35.3	-9.34	13.7	-9.35	–	-5.72	9.7	-5.2	–
O=C1CSC(=O)N1C(CCc1ccncc1)COc1ccc(-c2cccc([N+](=O)[O-])c2)cc1 (stereo not drawn)	2.68	-8.91	-2.95	3.73	-5.43	17.1	–	6.99	-1.32	–
COc1ccc(CCN(C)CCCC(C#N)(c2cc(OC)c(OC)c(OC)c2)C(C)C)cc1OC (stereo not drawn)	5.05	-7.93	-3.3	2.71	-3.7	3.04	–	-0.579	-7.76	–
N#Cc1c[nH]c2c(C(=O)N3CCN(CCc4ccc(F)cc4)CC3)cccc12	–	–	-9.6	-4.73	-7.3	-5.41	–	-8.12	-8.41	–
CC1CCN(CC[C@H]2CCCN2S(=O)(=O)c2cccc(O)c2)CC1	8.25	2.43	-9.71	-5.22	-7.22	–	6.36	3.5	-3.4	–
Cc1nnsc1C(=O)Nc1ccc(-n2nc(C(F)(F)F)cc2C(F)(F)F)cc1	0.306	–	-0.15	0.414	-1.63	14.6	–	15.8	15.7	–
